Laboratory results: PMC11748363, “Antimicrobial and Antiproliferative Properties of 2‐Phenyl‐N‐(Pyridin‐2‐yl)acetamides” (Chemical Biology & Drug Design, 2025)
Converted amounts (≈) assume the structure as drawn. Where two headings read alike, the source gives them in different places.

Assays:
[1] = test system: Mycolicibacterium aurum DSM 43999; assay: Antimycobacterial microdilution broth MIC (resazurin), M. aurum; assay type: cell-based; conditions: DSM43999, read-out: MIC M. aurum
[2] = test system: Aspergillus fumigatus ATCC 204305; assay: Antifungal microdilution broth MIC, AF
[3] = test system: Enterococcus faecalis CCM 4224, ATCC 29212; assay: Antibacterial microdilution broth MIC, EF; assay type: cell-based
[4] = test system: Staphylococcus aureus CCM 4223, ATCC 29213; assay: Antibacterial microdilution broth MIC, SA; assay type: cell-based; conditions: Staphylococcus aureus
[5] = test system: Candida albicans CCM 8320, ATCC 24433; assay: Antifungal microdilution broth MIC, CA
[6] = test system: Staphylococcus aureus subsp. aureus CCM 4750, ATCC 43300 (MRSA); assay: Antibacterial microdilution broth MIC, MRSA; assay type: cell-based; conditions: Staphylococcus aureus
HepG2 cell line = assay: Cytotoxicity CellTiter 96, HepG2; assay type: cell-based, human; conditions: 24 h incubation, ^c compound precipitated in the testing medium, ^d over the limit of tested concentrations
[7] = test system: Mycobacterium tuberculosis H37Ra; assay: Antimycobacterial microdilution broth MIC (resazurin), Mtb H37Ra; assay type: cell-based; conditions: for MIC: Mycobacterium tuberculosis, H37RA
[8] = test system: Candida krusei CCM 8271, ATCC 6258; assay: Antifungal microdilution broth MIC, CK; conditions: Pichia kudriavzevii
[9] = test system: Acinetobacter baumannii DSM 30007, ATCC 19606; assay: Antibacterial microdilution broth MIC, ACI; assay type: cell-based
[10] = test system: Klebsiella pneumoniae CCM 4415, ATCC 10031; assay: Antibacterial microdilution broth MIC, KP
[11] = test system: Mycolicibacterium smegmatis DSM 43465; assay: Antimycobacterial microdilution broth MIC (resazurin), M. smegmatis; assay type: cell-based; conditions: DSM43465, read-out: MIC M. smegmatis
[12] = test system: Trichophyton interdigitale CCM 8377, ATCC 9533; assay: Antifungal microdilution broth MIC, TI; conditions: Trichophyton interdigitale
[13] = test system: Candida parapsilosis CCM 8260, ATCC 22019; assay: Antifungal microdilution broth MIC, CP; conditions: Lodderomyces parapsilosis
[14] = test system: Pseudomonas aeruginosa CCM 3955, ATCC 27853; assay: Antibacterial microdilution broth MIC, PA; assay type: cell-based
[15] = test system: Aspergillus flavus CCM 8363; assay: Antifungal microdilution broth MIC, AFla
[16] = test system: Escherichia coli CCM 3954, ATCC 25922; assay: Antibacterial microdilution broth MIC, EC; assay type: cell-based
[17] = test system: Staphylococcus epidermidis CCM 4418, ATCC 12228; assay: Antibacterial microdilution broth MIC, SE; assay type: cell-based
[18] = test system: Lichtheimia corymbifera CCM 8077; assay: Antifungal microdilution broth MIC, LC
[19] = test system: Candida tropicalis CCM 8264, ATCC 750; assay: Antifungal microdilution broth MIC, CT
[20] = ATCC204305, 24 h, read-out: MIC AF 24h
[21] = ATCC204305, 48 h, read-out: MIC AF 48h
[22] = Calculated from MIC (μg/mL), read-out: MIC Mtb H37Ra
[23] = CCM8363, 24 h, read-out: MIC AFla 24h
[24] = CCM8363, 48 h, read-out: MIC AFla 48h
[25] = CCM8077, 24 h, read-out: MIC LC 24h
[26] = CCM8077, 48 h, read-out: MIC LC 48h
[27] = read-out: MIC Mtb H37Ra (μg/mL)

SMILES | MIC [1] | MIC [2, 20] | MIC [2, 21] | MIC ([3]; 24 h, read-out: MIC EF 24h) | MIC ([3]; 48 h, read-out: MIC EF 48h) | MIC ([4]; 24 h, read-out: MIC SA 24h) | MIC ([4]; 48 h, read-out: MIC SA 48h) | MIC ([5]; 24 h, read-out: MIC CA 24h) | MIC ([5]; 48 h, read-out: MIC CA 48h) | MIC ([6]; 24 h, read-out: MIC MRSA 24h) | MIC ([6]; 48 h, read-out: MIC MRSA 48h) | IC50 (HepG2 cell line; Homo sapiens, HepG2, 24 h) | MIC ([8]; 24 h, read-out: MIC CK 24h) | MIC ([8]; 48 h, read-out: MIC CK 48h) | MIC ([9]; 24 h, read-out: MIC ACI 24h) | MIC ([9]; 48 h, read-out: MIC ACI 48h) | MIC KP 24h [10] | MIC KP 48h [10] | MIC [11] | MIC ([12]; 72 h, read-out: MIC TI 72h) | further results
O=C(Cc1ccccc1)Nc1ccc(Cl)cn1 [Compound 2] | 500 µg/mL (≈ 2030 µM) | > 500 µM | > 500 µM | > 500 µM | > 500 µM | > 500 µM | > 500 µM | > 500 µM | > 500 µM | > 500 µM | > 500 µM | > 100 µM | > 500 µM | > 500 µM | > 500 µM | > 500 µM | > 500 µM | > 500 µM | 500 µg/mL (≈ 2030 µM) | > 500 µM | MIC [7, 22]: 63.3 µM; MIC ([7]; read-out: MIC Mtb H37Ra): 15.6 µg/mL; SI (selectivity index) ([7]; SI = HepG2 IC50 (μM)/MIC MtbH37Ra (μM), calculated for compounds with MIC ≤ 31.25 μg/mL): > 1.6; MIC ([12]; 120 h, read-out: MIC TI 120h): > 500 µM; MIC ([13]; 24 h, read-out: MIC CP 24h): > 500 µM; MIC ([13]; 48 h, read-out: MIC CP 48h): > 500 µM; MIC ([14]; 24 h, read-out: MIC PA 24h): > 500 µM; MIC ([14]; 48 h, read-out: MIC PA 48h): > 500 µM; MIC [15, 23]: > 500 µM; MIC [15, 24]: > 500 µM; MIC ([16]; 24 h, read-out: MIC EC 24h): > 500 µM; MIC ([16]; 48 h, read-out: MIC EC 48h): > 500 µM; MIC ([17]; 24 h, read-out: MIC SE 24h): > 500 µM; MIC ([17]; 48 h, read-out: MIC SE 48h): > 500 µM; MIC [18, 25]: > 500 µM; MIC [18, 26]: > 500 µM; MIC ([19]; 24 h, read-out: MIC CT 24h): > 500 µM; MIC ([19]; 48 h, read-out: MIC CT 48h): > 500 µM
COc1cccc(CC(=O)Nc2cccc(Cl)n2)c1 [Compound 9, 2-(3-methoxyphenyl)-N-(6-chloropyridin-2-yl)acetamide] | > 500 µg/mL | 500 µM (≈ 138 µg/mL) | > 500 µM | > 500 µM | > 500 µM | > 500 µM | > 500 µM | 500 µM (≈ 138 µg/mL) | 500 µM (≈ 138 µg/mL) | > 500 µM | > 500 µM | 638 µM | 500 µM (≈ 138 µg/mL) | 500 µM (≈ 138 µg/mL) | > 500 µM | > 500 µM | > 500 µM | > 500 µM | 125 µg/mL (≈ 452 µM) | 500 µM (≈ 138 µg/mL) | MIC [7, 22]: 900 µM; MIC ([7]; read-out: MIC Mtb H37Ra): 250 µg/mL; MIC ([12]; 120 h, read-out: MIC TI 120h): > 500 µM; MIC ([13]; 24 h, read-out: MIC CP 24h): 500 µM (≈ 138 µg/mL); MIC ([13]; 48 h, read-out: MIC CP 48h): 500 µM (≈ 138 µg/mL); MIC ([14]; 24 h, read-out: MIC PA 24h): > 500 µM; MIC ([14]; 48 h, read-out: MIC PA 48h): > 500 µM; MIC [15, 23]: 500 µM (≈ 138 µg/mL); MIC [15, 24]: > 500 µM; MIC ([16]; 24 h, read-out: MIC EC 24h): > 500 µM; MIC ([16]; 48 h, read-out: MIC EC 48h): > 500 µM; MIC ([17]; 24 h, read-out: MIC SE 24h): > 500 µM; MIC ([17]; 48 h, read-out: MIC SE 48h): > 500 µM; MIC [18, 25]: 500 µM (≈ 138 µg/mL); MIC [18, 26]: > 500 µM; MIC ([19]; 24 h, read-out: MIC CT 24h): 500 µM (≈ 138 µg/mL); MIC ([19]; 48 h, read-out: MIC CT 48h): 500 µM (≈ 138 µg/mL)
O=C(Cc1ccc(F)cc1)Nc1ccc(Cl)cn1 [Compound 32] | 500 µg/mL (≈ 1890 µM) | > 500 µM | > 500 µM | > 500 µM | > 500 µM | > 500 µM | > 500 µM | > 500 µM | > 500 µM | > 500 µM | > 500 µM | > 250 µM | > 500 µM | > 500 µM | > 500 µM | > 500 µM | > 500 µM | > 500 µM | 62.5 µg/mL (≈ 236 µM) | > 500 µM | MIC ([7]; read-out: MIC Mtb H37Ra (μM)): 59 µM; MIC [7, 27]: 15.6 µg/mL; MIC ([12]; 120 h, read-out: MIC TI 120h): > 500 µM; MIC ([13]; 24 h, read-out: MIC CP 24h): > 500 µM; MIC ([13]; 48 h, read-out: MIC CP 48h): > 500 µM; MIC ([14]; 24 h, read-out: MIC PA 24h): > 500 µM; MIC ([14]; 48 h, read-out: MIC PA 48h): > 500 µM; MIC [15, 23]: > 500 µM; MIC [15, 24]: > 500 µM; MIC ([16]; 24 h, read-out: MIC EC 24h): > 500 µM; MIC ([16]; 48 h, read-out: MIC EC 48h): > 500 µM; MIC ([17]; 24 h, read-out: MIC SE 24h): 125 µM (≈ 33.1 µg/mL); MIC ([17]; 48 h, read-out: MIC SE 48h): 125 µM (≈ 33.1 µg/mL); MIC [18, 25]: > 500 µM; MIC [18, 26]: > 500 µM; MIC ([19]; 24 h, read-out: MIC CT 24h): > 500 µM; MIC ([19]; 48 h, read-out: MIC CT 48h): > 500 µM
O=C(Cc1ccccc1)Nc1ccccn1 [Compound 1] | 250 µg/mL (≈ 1180 µM) | > 500 µM | > 500 µM | > 500 µM | > 500 µM | > 500 µM | > 500 µM | 500 µM (≈ 106 µg/mL) | 500 µM (≈ 106 µg/mL) | > 500 µM | > 500 µM | > 500 µM | 500 µM (≈ 106 µg/mL) | 500 µM (≈ 106 µg/mL) | > 500 µM | > 500 µM | > 500 µM | > 500 µM | 62.5 µg/mL (≈ 294 µM) | 500 µM (≈ 106 µg/mL) | IC50 (HepG2 cell line): > 1000 µM; MIC ([7]; read-out: MIC Mtb H37Ra (μM)): 147 µM; MIC [7, 27]: 31.2 µg/mL; MIC ([12]; 120 h, read-out: MIC TI 120h): 500 µM (≈ 106 µg/mL); MIC ([13]; 24 h, read-out: MIC CP 24h): 500 µM (≈ 106 µg/mL); MIC ([13]; 48 h, read-out: MIC CP 48h): 500 µM (≈ 106 µg/mL); MIC ([14]; 24 h, read-out: MIC PA 24h): > 500 µM; MIC ([14]; 48 h, read-out: MIC PA 48h): > 500 µM; MIC [15, 23]: > 500 µM; MIC [15, 24]: > 500 µM; MIC ([16]; 24 h, read-out: MIC EC 24h): > 500 µM; MIC ([16]; 48 h, read-out: MIC EC 48h): > 500 µM; MIC ([17]; 24 h, read-out: MIC SE 24h): > 500 µM; MIC ([17]; 48 h, read-out: MIC SE 48h): > 500 µM; MIC [18, 25]: > 500 µM; MIC [18, 26]: > 500 µM; MIC ([19]; 24 h, read-out: MIC CT 24h): 500 µM (≈ 106 µg/mL); MIC ([19]; 48 h, read-out: MIC CT 48h): 500 µM (≈ 106 µg/mL)
